Source: ChEMBL document CHEMBL1144950, “Structure--activity relationships of azasugar-based MMP/ADAM inhibitors” (Bioorg Med Chem Lett, 2003)

Assays:
[1] = target: T1, Disintegrin and metalloproteinase domain-containing protein 17 (Homo sapiens, UniProt P78536); test: Inhibition of recombinant human TNF-alpha converting enzyme (TACE)
Interstitial collagenase = target: T2, Interstitial collagenase (Homo sapiens, UniProt P03956); test: Inhibition of recombinant human matrix metalloprotease-1
T2 sequence (P03956 whole entry): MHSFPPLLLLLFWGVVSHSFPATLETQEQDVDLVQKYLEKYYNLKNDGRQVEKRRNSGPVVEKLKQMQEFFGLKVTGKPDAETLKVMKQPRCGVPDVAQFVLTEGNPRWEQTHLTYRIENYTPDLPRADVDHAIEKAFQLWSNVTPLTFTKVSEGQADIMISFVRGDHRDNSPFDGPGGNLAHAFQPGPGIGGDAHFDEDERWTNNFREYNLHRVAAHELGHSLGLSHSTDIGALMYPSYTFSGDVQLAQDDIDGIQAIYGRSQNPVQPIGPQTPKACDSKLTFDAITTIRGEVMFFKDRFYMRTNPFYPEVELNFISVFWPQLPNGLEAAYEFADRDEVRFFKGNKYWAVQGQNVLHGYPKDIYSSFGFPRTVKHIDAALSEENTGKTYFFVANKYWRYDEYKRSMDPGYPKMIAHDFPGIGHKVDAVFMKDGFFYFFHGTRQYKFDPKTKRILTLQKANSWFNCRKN

Stromelysin-1 = Stromelysin-1 (Homo sapiens, UniProt P08254); test: Inhibition of recombinant human matrix metalloprotease-3
Chain of Stromelysin-1 (P08254 whole entry): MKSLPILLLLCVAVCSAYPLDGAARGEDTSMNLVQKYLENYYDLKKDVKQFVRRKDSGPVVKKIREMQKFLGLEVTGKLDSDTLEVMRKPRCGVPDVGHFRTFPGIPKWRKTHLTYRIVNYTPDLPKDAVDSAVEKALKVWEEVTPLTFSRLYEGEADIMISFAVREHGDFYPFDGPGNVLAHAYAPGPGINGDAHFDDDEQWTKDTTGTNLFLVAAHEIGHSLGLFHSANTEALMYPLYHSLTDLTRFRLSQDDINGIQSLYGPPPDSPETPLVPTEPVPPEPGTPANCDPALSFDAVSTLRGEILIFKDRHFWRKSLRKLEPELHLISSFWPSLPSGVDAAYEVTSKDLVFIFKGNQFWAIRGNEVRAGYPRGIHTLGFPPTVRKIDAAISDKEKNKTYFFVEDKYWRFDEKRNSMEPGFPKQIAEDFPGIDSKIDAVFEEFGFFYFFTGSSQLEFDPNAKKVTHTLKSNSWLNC

[2] = target: Matrix metalloproteinase-9 (Homo sapiens, UniProt P14780); test: Inhibition of recombinant human matrix metalloprotease-9
Chain of Matrix metalloproteinase-9 (P14780 whole entry, the tested form may be a part): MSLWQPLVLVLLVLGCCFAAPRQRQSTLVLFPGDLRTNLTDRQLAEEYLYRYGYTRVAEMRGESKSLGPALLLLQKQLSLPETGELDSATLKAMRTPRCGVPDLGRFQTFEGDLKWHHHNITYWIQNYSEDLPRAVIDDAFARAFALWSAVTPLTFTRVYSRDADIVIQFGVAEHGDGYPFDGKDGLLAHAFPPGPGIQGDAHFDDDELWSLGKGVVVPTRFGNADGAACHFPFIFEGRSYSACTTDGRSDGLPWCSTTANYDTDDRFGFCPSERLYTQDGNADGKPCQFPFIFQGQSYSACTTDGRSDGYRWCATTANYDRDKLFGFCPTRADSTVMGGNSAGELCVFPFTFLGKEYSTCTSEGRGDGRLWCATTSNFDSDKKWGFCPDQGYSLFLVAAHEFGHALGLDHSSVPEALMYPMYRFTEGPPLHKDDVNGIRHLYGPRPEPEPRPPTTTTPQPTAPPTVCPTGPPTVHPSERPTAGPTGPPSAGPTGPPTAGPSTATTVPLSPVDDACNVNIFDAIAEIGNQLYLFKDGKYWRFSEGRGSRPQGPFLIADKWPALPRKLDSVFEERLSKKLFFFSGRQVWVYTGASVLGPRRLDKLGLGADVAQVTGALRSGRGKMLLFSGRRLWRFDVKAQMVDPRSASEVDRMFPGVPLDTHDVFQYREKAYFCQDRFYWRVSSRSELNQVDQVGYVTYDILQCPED

[3] = target: T1, Disintegrin and metalloproteinase domain-containing protein 17; test: Inhibition of recombinant human TNF-alpha converting enzyme

T1 sequence (P78536 whole entry, the tested form may be a part): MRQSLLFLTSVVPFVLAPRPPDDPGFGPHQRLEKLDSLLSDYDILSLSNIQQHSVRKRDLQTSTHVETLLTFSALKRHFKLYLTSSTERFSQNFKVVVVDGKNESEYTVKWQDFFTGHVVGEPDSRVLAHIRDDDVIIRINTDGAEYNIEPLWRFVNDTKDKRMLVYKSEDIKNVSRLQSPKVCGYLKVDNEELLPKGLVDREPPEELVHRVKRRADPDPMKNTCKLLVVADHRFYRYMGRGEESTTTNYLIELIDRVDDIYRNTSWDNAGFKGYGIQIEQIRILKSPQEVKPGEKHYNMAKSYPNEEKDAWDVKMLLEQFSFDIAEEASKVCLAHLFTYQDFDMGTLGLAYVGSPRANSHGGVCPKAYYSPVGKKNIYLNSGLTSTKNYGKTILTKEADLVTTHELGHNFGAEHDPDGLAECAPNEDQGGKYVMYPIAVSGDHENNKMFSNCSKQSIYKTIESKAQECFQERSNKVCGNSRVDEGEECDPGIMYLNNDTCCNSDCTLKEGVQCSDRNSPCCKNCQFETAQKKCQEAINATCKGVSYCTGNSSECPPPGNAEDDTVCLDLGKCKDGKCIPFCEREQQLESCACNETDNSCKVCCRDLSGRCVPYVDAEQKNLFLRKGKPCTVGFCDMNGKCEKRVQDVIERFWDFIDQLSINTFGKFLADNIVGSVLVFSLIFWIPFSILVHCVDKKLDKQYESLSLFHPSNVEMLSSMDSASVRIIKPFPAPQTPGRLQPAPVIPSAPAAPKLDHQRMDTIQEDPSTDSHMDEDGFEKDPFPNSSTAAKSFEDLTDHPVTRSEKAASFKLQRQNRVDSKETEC

Row | Compound | Ki [1] | Ki (Interstitial collagenase) | Ki (Stromelysin-1) | Ki [2] | Ki [3]
1 | O=C(NO)[C@H]1[C@@H](O)[C@H](O)[C@@H](O)CN1S(=O)(=O)c1ccc(OC2CCCCC2)cc1 | 0.067 µM | 0.1 µM | 0.0018 µM | 0.00093 µM | –
2 | CCOCCOc1ccc(S(=O)(=O)N2C[C@H](O)[C@@H](O)[C@H](O)[C@@H]2C(=O)NO)cc1 | 0.0087 µM | > 0.85 µM | 0.042 µM | 0.064 µM | –
3 | O=C(NO)[C@H]1[C@@H](O)[C@H](O)[C@@H](O)CN1S(=O)(=O)c1ccc(Oc2ccccc2)cc1 | – | 0.008 µM | 0.00051 µM | – | 0.0023 µM
4 | COc1ccc(S(=O)(=O)N2C[C@H](O)[C@@H](O)[C@H](O)[C@@H]2C(=O)NO)cc1 | 0.012 µM | 0.025 µM | – | – | –
5 | COc1ccc(S(=O)(=O)N2C[C@@H](O)[C@H](O)[C@@H](O)[C@@H]2C(=O)NO)cc1 | 0.34 µM | 0.45 µM | – | – | –
6 | COc1ccc(S(=O)(=O)N2C[C@H](O)[C@@H](O)[C@@H](O)[C@@H]2C(=O)NO)cc1 | 0.071 µM | – | – | – | –
7 | O=C(NO)[C@H]1[C@@H](O)[C@H](O)[C@@H](O)CN1S(=O)(=O)c1ccc(OCc2ccccc2)cc1 | 0.0016 µM | 0.85 µM | 0.0026 µM | 0.0061 µM | –
8 | COc1ccc(S(=O)(=O)N2C[C@H](O)[C@H](O)[C@@H](O)[C@@H]2C(=O)NO)cc1 | 0.51 µM | > 0.85 µM | – | – | –
